According to publication PMC9587005, “Phosphatidic Acid Mediates the Nem1-Spo7/Pah1 Phosphatase Cascade in Yeast Lipid Synthesis” (Journal of Lipid Research, 2022):

Biological target: T1, Nem1-Spo7 protein phosphatase complex (Saccharomyces cerevisiae, UniProt P38757)
T1 construct: Protein A-tagged Nem1 with Spo7, overexpressed in S. cerevisiae RS453, IgG-Sepharose purified, reconstituted into phospholipid vesicles
T1 sequence (P38757 1-446): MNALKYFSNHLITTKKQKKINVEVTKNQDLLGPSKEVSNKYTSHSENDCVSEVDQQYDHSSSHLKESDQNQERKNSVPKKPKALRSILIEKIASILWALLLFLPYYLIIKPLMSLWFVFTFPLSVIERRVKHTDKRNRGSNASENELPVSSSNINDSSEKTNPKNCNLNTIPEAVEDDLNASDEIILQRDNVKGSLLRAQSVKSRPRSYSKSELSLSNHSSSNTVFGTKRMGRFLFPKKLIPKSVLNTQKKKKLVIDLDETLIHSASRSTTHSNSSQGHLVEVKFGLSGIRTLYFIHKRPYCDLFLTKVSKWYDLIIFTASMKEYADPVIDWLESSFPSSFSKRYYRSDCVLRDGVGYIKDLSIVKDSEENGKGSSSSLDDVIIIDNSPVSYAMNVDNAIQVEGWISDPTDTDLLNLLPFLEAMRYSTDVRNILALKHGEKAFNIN
T1 sequence (P18410 1-259 partner): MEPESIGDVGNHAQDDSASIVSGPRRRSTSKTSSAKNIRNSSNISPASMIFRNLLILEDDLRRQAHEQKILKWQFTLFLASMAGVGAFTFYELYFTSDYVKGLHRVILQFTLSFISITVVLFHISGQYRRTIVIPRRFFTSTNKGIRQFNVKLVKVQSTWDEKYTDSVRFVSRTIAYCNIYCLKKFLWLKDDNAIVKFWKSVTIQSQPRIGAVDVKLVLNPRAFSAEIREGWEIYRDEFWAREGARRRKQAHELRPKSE
Test: release of […] from […]Pah1, proteoliposomes
Type: biochemical
Conditions: activator (cooperative), direct binding not shown, membrane effect possible; reconstituted in PC/PE/PI/PS vesicles; substrate Pah1 phosphorylated by Pho85-Pho80; 10 mM MgCl2, pH 5.0, 30 °C

fold stimulation at 10 mol %: 3.6 fold
SMILES: CCCCCCCC/C=C\CCCCCCCC(=O)OC[C@H](COP(=O)(O)O)OC(=O)CCCCCCC/C=C\CCCCCCCC [PA]
